Source: patent US20220401465A1, “USES OF NAD+ AND/OR NAD+ INHIBITORS AND/OR NAD+ AGONISTS AND COMBINATION PREPARATION THEREOF” (ShanghaiTech University, priority 2019, published 2022)

How the values were obtained:
[1] = test system: T cells in PBMC; assay: CD69 expression on T cells after anti-CD3/CD28 activation of PBMC (flow cytometry); assay type: cell-based, human
Method: (§1) Human peripheral blood mononuclear cells (PBMC) were diluted 1:1 with fresh blood and normal saline (Meilun Biological MA0083) and then added flat to the upper layer of an equal volume of Histopaque®-1077 (Sigma10771) separation solution. The cells were centrifuged slowly for 30 min at 500 g at room temperature. After centrifugation, the white membrane layer between the plasma and the separation solution was imbibed and washed with normal saline. After repeated washing, the cells were resuspended with 10% FBS (Thermofisher 10099141C) RPMI (Corning10-040-CV) medium for later use.
(§2) The concentration of PBMC cells was adjusted to no more than 0.5 million/ml, and the final concentration of 1 μM FK866 (Selleck S2799), 100 μM NAD+ (Selleck S2518), or 1μM FK866, and 100 μM NAD+ were added respectively. The cells after drug addition were cultured in a cell incubator for 24 hours at 37° C., with 5% CO2.
Highly adsorbed 96-well plates were coated with CD28 (Biolegend 102112), and CD3 (Thermofisher 14-0037-82) antibodies at the final concentration of 0 or 3 μg/ml, the PBMC cells treated with the above different treatments were added to the well plates, respectively. After 24 h stimulation, the cells were collected for CD69 staining. […] After washing with Staining buffer, the cells were resuspended with staining buffer containing DAPI and then detected on BD LSRFortessa. […]

[2] = test system: T cells in PBMC; assay: Intracellular tyrosine phosphorylation after anti-CD3/CD28 activation of PBMC (WB, 4G10 antibody); assay type: cell-based, human; conditions: 1 μM FK866 24 h, then CD3/CD28 antibody stimulation 5 min, versus solvent
Method: as §1, §2
Highly adsorbed 96-well plates were coated with CD28 (Biolegend 102112), and CD3 (Thermofisher 14-0037-82) antibodies at the final concentration of 0 or 3 μg/ml, the PBMC cells treated with the above different treatments were added to the well plates, respectively. […] WB testing: after cell collection, the cells were lysed to extract proteins, which were then electrophoretically transferred and detected with 4G10 antibody (Millipore16-103) for anti-Phosphotyrosine testing. […]

[3] = test system: K562-CD19-mCherry-luciferase cells; assay: Subcutaneous K562-CD19-mCherry-luciferase solid tumor model in NSG mice, in vivo imaging and survival; conditions: NAM alone i.p. daily 100 μL at 1 g/ml in saline, versus saline, n=5
Method: In cells with K562-CD19-mCherry, as described previously, luciferase was then overexpressed through the lentiviral system. […] Since subcutaneously injected K562 cells also overexpressed Luciferase, intracellular fluorescence can be excited after intraperitoneal injection of the substrate luciferin (PerkinElmer 122799) in mice, and tumor growth in mice can be collected by in vivo imaging. Before CAR-T cells were injected into the tail vein of mice, the fluorescence signal intensity of mouse tumor cells was detected as the starting point, and then the fluorescence intensity of mouse tumor cells was detected every 7 days. For detection, the mice were intraperitoneally injected with 150 μL of D-luciferin potassium salt at a concentration of 10 mg/ml, and 10 minutes later, the fluorescence of tumor cells was detected using IVIS® LuminaIII small animal in vivo imaging system. The stronger the fluorescence, the more tumor cells and the faster the tumor growth.

Compound | CD69 on the surface of T cells ([1]; PBMC, 1 μM FK866 24 h, then CD3/CD28 antibody stimulation 24 h, versus solvent) | T cell activation ability ([1]; concluded from CD69 and phosphorylation levels when NAD+ synthesis was inhibited) | intracellular phosphorylation levels (tyrosine) [2] | effect on the fluorescence intensity and tumor growth of tumor cells [3]
O=C(/C=C/c1cccnc1)NCCCCC1CCN(C(=O)c2ccccc2)CC1 [FK866] | significantly reduced | significantly decreased | significantly reduced | 
NC(=O)c1cccnc1 [Nicotinamide (NAM), Nicotinamide] |  |  |  | no significant effect
